The values that follow come from paper PMC11396667, “Design, Synthesis, and Anticancer and Antibacterial Activities of Quinoline-5-Sulfonamides” (Molecules, 2024).

≈ marks a conversion by molar mass, not a printed value.

One may read the MIC as the smallest concentration in the dilution series that meets the test's criterion for growth inhibition. Read a high MIC as weaker potency. One may read the MBC as the lowest tested concentration that kills the bacteria rather than only halting them. A higher MBC goes with weaker bactericidal potency.

Experiment [1] relates to Staphylococcus aureus ATCC 29213. The experiment is described as follows: MIC, microtitration broth method, SA. Type of experiment: cell-based. Conditions: ATCC29213, 24 h, 37 °C, CaMH broth. An excerpt: (§1) Since there is a general decrease in immunity during the treatment of oncological patients, i.e., patients are more susceptible to infectious diseases, it is advantageous if anticancer agents show antimicrobial properties at the same time. Therefore, the effects of the compounds were also investigated against Gram-positive bacteria. For this purpose, the susceptible collection strains of aerobic Staphylococcus aureus ATCC 29213 and facultatively aerobic Enterococcus faecalis ATCC 29212 and resistant clinical isolates of methicillin-resistant S. aureus (MRSA) SA 3202, SA 630 carrying the mecA gene, and vancomycin-resistant isolates of E. faecalis (VRE) 342B, 368, and 725B carrying the vanA gene were selected. Thus, the selection of the studied bacterial strains was adopted following the CLSI ([…]) international reference methodologies.
(§2) The in vitro antibacterial activity of the synthesized compounds was evaluated against representatives of multidrug-resistant bacteria, […] clinical isolates of methicillin-resistant S. aureus: clinical isolates of human origin, MRSA SA 3202, and MRSA SA 630 (National Institute of Public Health, Prague, Czech Republic), carrying the mecA gene. These two clinical isolates were classified as vancomycin-susceptible (but with a higher MIC of vancomycin equal to 2 μg/mL (VA2-MRSA). Vancomycin- and methicillin-susceptible S. aureus ATCC 29213 and vancomycin-susceptible Enterococcus faecalis ATCC 29212, obtained from the American Type Culture Collection, were used as the reference and quality control strains. Three vanA gene-carrying vancomycin-resistant isolates of E. faecalis (VRE 342B, VRE 368, VRE 725B) (Department of Infectious Diseases and Microbiology, Faculty of Veterinary Medicine, University of Veterinary Sciences Brno, Czech Republic) were provided by Oravcova et al..
(§3) The minimum inhibitory concentrations (MICs) were evaluated by the microtitration broth method according to the CLSI, with some modifications. The compounds were dissolved in DMSO (Sigma, St. Louis, MO, USA) to obtain a concentration of […] and diluted in a microtitration plate in an appropriate medium, i.e., Cation-Adjusted Mueller–Hinton Broth (CaMH, Oxoid, Basingstoke, UK) for staphylococci, and Brain Heart Infusion Broth (BHI, Oxoid) for enterococci to reach the final concentration of 256–0.125 µg/mL. Microtiter plates were inoculated with test microorganisms so that the final concentration of bacterial cells was 10^5. Ampicillin, oxacillin, and ciprofloxacin (Sigma) were used as reference drugs. A drug-free control and a sterility control were included. The plates were incubated for 24 h at 37 °C for staphylococci and enterococci. […] The experiments were repeated three times.

Experiment [2] deals with methicillin-resistant S. aureus SA 3202. In words: MIC, microtitration broth method, MRSA1. Conditions: Staphylococcus aureus; 24 h, 37 °C, CaMH broth. The experiment is classed as cell-based.
Description: as §1, §2, §3

Experiment [3] has as its system methicillin-resistant S. aureus SA 630. In words: MIC, microtitration broth method, MRSA2. Type of experiment: cell-based. Conditions: Staphylococcus aureus; 24 h, 37 °C, CaMH broth.
Description: as §1, §2, §3

Experiment [4] deals with Enterococcus faecalis ATCC 29212. The experiment is described as follows: MIC, microtitration broth method, EF. Type of experiment: cell-based. Conditions: ATCC29212, 24 h, 37 °C, BHI broth.
Description: as §1, §2, §3

In experiment [5] the test system is Staphylococcus aureus ATCC 29213. In words: MBC, agar aliquot subculture method, SA. Type of experiment: cell-based. To be noted: ATCC29213, 99.9% decrease in CFU, 24 h, 37 °C. An excerpt: (§4) The activities of the individual derivatives were expressed as minimum inhibitory concentrations (MICs) and minimum bactericidal concentrations (MBCs) and are shown in Table 3 together with the values of the antibiotics used as standards for comparison. […] MBC values of bactericidal compounds are indicated in bold in Table 3.
(§5) For the above-mentioned strains/isolates, the agar aliquot subculture method was used as a test for bactericidal agents. After the MIC value determination, the inoculum was transferred to CaMH (Oxoid) for staphylococci, and BHI (Oxoid) for enterococci medium using a multipoint inoculator. The plates were incubated in a thermostat at 37 °C for 24 h. The lowest concentration of test compound at which ≤5 colonies were obtained was then evaluated as MBC, corresponding to a 99.9% decrease in CFU relative to the original inoculum.

Experiment [6] deals with methicillin-resistant S. aureus SA 3202. The experiment is described as follows: MBC, agar aliquot subculture method, MRSA1. Type of experiment: cell-based. To be noted: Staphylococcus aureus; 99.9% decrease in CFU, 24 h, 37 °C.
Description: as §4, §5

Experiment [7] has as its system methicillin-resistant S. aureus SA 630. The experiment is described as follows: MBC, agar aliquot subculture method, MRSA2. The experiment is classed as cell-based. Conditions: Staphylococcus aureus; 99.9% decrease in CFU, 24 h, 37 °C.
Description: as §4, §5

Experiment [8] relates to Enterococcus faecalis ATCC 29212. In words: MBC, agar aliquot subculture method, EF. Type of experiment: cell-based. Conditions: ATCC29212, 99.9% decrease in CFU, 24 h, 37 °C.
Description: as §4, §5

The next experiment deals with S. aureus ATCC 29213. The experiment is described as follows: MTT assay of bacterial respiratory activity. Type of experiment: cell-based, Staphylococcus aureus. Conditions: S. aureus ATCC 29213. An excerpt: The MTT assay can be used to assess cell growth by measuring respiration. Bacterial cell respiratory activity (which is ultimately reflected in their viability) of less than 70% after exposure to the MIC values for each test compound is considered as a positive result for this test. This low level of cellular oxidative metabolism indicates inhibition of cell growth by inhibition of respiration. The lowest multiples of the MIC values by which inhibition of S. aureus ATCC 29213 viability [%] greater than 70% was achieved are shown in Table 4. […] Therefore, the antibacterial activity of the discussed compounds cannot be explained solely on the basis of respiration inhibition, so it is very difficult to draw a conclusion regarding the actual mechanism of action, since 8-HQs are multi-target agents, i.e., they affect several different targets at once (as discussed in the section dedicated to anticancer activity), which subsequently leads to the death of the treated resistant microorganisms.
Compounds were prepared as previously stated and diluted in CaMH broth for S. aureus to achieve the desired final concentrations. S. aureus bacterial suspension in sterile distilled water at 0.5 McFarland was diluted 1:3. Inocula were added to each well by multi-inoculator. Diluted mycobacteria in broth free from inhibiting compounds were used as the growth control. All compounds were prepared in duplicate. Plates were incubated at 37 °C for 24 h for S. aureus. After the incubation period, 10% well volume of MTT (3-(4,5-dimethylthiazol-2-yl)-2,5-diphenyltetrazolium bromide) reagent (Sigma) was mixed into each well and incubated at 37 °C 1 h for S. aureus. Then, 100 µL of 17% sodium dodecyl sulphate in 40% dimethylformamide was added to each well. The plates were read at 570 nm. The absorbance readings from the cells grown in the presence of the tested compounds were compared with uninhibited cell growth to determine the relative percent inhibition. The percent inhibition was determined through MTT assay. The percent viability is calculated through the comparison of a measured value and that of the uninhibited control: % viability = OD570E/OD570P × 100, where OD570E is the reading from the compound-exposed cells, while OD570P is the reading from the uninhibited cells (positive control). Cytotoxic potential is determined by a percent viability of <70% [81, 82].
On the technique in general: Tetrazolium assays rely on reduction of a dye to a coloured formazan, in cell work by metabolically active cells.

In experiment [9] the test system is methicillin-resistant S. aureus SA 3202. Also noted: method as in PMID 25692135. Conditions: isolate classified as vancomycin-susceptible (VA2-MRSA); ref [76]; cited from earlier work.
Experiment [10] has as its system methicillin-resistant S. aureus SA 630. Details: method as in PMID 25692135. Conditions: isolate classified as vancomycin-susceptible (VA2-MRSA); ref [76]; cited from earlier work.

Regarding `CC1(C)S[C@@H]2[C@H](NC(=O)[C@H](N)c3ccccc3)C(=O)N2[C@H]1C(=O)O` [AMP, ampicillin, reference compound], the MIC in experiment [1] was 5.72 µM (≈ 2 µg/mL); in [2] it was greater than 45.8 µM; in experiment [3] it was greater than 45.8 µM; in experiment [4] it was 2.81 µM (≈ 0.982 µg/mL). Moreover, the MBC is 5.72 µM (≈ 2 µg/mL) in experiment [5], greater than 45.8 µM in experiment [6], greater than 45.8 µM in experiment [7] and 2.81 µM (≈ 0.982 µg/mL) in experiment [8]. In addition, in the experiment on S. aureus ATCC 29213, the “Conc.: lowest multiple of MIC with at least 70% inhibition of respiratory activity” value was 16× MIC (>16× MBC).
For `Cc1onc(-c2ccccc2)c1C(=O)N[C@@H]1C(=O)N2[C@@H]1SC(C)(C)[C@@H]2C(=O)O` [OXA, oxacillin, reference compound], the MIC in experiment [1] came out at 1.25 µM (≈ 0.502 µg/mL); in experiment [2] it was 79.8 µM (≈ 32 µg/mL); in [3], 29.7 µM (≈ 11.9 µg/mL). Moreover, the MBC in experiment [5] was determined as 1.25 µM (≈ 0.502 µg/mL); in [6], 79.8 µM (≈ 32 µg/mL); in [7], 29.7 µM (≈ 11.9 µg/mL).
For the compound `CN[C@H](CC(C)C)C(=O)N[C@H]1C(=O)N[C@@H](CC(N)=O)C(=O)N[C@H]2C(=O)N[C@H]3C(=O)N[C@H](C(=O)N[C@H](C(=O)O)c4cc(O)cc(O)c4-c4cc3ccc4O)[C@H](O)c3ccc(c(Cl)c3)Oc3cc2cc(c3O[C@@H]2O[C@H](CO)[C@@H](O)[C@H](O)[C@H]2O[C@H]2C[C@](C)(N)[C@H](O)[C@H](C)O2)Oc2ccc(cc2Cl)[C@H]1O` [vancomycin], in experiment [9], the “MIC of vancomycin, MRSA SA 3202” value is 2 µg/mL. Further, the “MIC of vancomycin, MRSA SA 630” value in [10] was 2 µg/mL.
